Assays:
[1] = target: T1, ATP-dependent translocase ABCB1 (Homo sapiens, UniProt P08183); assay: TP_TRANSPORTER: drug resistance (vinblastine) in K562-DR cells; format: functional, cell-based
[2] = target: T1, ATP-dependent translocase ABCB1; assay: TP_TRANSPORTER: drug resistance (vinblastine) in HepG2-DR cells; format: functional, cell-based

T1 sequence (P08183 whole entry): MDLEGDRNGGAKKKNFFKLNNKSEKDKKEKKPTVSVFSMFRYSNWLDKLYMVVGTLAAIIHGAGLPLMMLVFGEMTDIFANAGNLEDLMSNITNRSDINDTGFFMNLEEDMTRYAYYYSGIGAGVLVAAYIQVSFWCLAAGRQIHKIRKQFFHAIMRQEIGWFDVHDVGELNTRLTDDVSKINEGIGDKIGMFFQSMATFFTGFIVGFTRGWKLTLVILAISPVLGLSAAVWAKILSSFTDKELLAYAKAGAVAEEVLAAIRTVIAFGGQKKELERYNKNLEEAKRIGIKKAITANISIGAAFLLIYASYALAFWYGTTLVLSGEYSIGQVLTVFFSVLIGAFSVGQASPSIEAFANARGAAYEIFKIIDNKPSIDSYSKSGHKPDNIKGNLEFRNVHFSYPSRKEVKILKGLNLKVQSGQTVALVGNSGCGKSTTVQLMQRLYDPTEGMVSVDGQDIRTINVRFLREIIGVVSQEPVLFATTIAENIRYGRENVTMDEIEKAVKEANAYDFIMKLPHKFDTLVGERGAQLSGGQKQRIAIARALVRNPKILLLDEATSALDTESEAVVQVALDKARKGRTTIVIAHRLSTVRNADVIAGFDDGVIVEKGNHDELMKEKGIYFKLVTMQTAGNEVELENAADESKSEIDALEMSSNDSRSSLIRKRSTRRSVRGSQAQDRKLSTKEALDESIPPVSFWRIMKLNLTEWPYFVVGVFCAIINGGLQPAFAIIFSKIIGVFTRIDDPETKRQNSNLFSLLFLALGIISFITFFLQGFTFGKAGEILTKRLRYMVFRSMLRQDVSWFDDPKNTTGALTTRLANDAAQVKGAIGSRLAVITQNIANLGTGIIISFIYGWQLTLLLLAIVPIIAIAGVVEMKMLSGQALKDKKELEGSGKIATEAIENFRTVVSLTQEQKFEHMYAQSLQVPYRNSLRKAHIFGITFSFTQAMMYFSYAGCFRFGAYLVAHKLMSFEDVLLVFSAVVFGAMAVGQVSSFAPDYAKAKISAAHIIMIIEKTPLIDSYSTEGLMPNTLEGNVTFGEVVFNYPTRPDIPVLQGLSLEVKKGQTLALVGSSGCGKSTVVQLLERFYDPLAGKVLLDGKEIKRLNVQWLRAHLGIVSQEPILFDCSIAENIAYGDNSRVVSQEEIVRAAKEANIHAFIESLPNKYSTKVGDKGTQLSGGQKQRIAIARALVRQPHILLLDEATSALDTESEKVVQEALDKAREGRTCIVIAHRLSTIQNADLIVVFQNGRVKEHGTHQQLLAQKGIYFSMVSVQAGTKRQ

Activity [1]: inhibitor [+]
Activity [2]: inhibitor [+]
Compound: C[C@H](C[C@](O)(CC(=O)O)C1OC1(C)C)C1=C2C[C@H](O)[C@@H]3[C@H](CCC4C(C)(C)C(=O)CC[C@@]43C)[C@@]2(C)CC1 (some centres not stated)

— ChEMBL document CHEMBL2074076, “Reversal of P-glycoprotein-mediated multidrug resistance by Alisol B 23-acetate” (Biochem Pharmacol, 2004)
